The assay deals with D(2) dopamine receptor (Homo sapiens, UniProt P14416). Put plainly: Antagonist activity at dopamine D2 receptor (unknown origin).

Experimental findings from ChEMBL document CHEMBL3217715, “Are pyridazines privileged structures?” (Medchemcomm, 2011) are described below.

pKi: −log10 of the molar value.

Chain of D(2) dopamine receptor (P14416 whole entry): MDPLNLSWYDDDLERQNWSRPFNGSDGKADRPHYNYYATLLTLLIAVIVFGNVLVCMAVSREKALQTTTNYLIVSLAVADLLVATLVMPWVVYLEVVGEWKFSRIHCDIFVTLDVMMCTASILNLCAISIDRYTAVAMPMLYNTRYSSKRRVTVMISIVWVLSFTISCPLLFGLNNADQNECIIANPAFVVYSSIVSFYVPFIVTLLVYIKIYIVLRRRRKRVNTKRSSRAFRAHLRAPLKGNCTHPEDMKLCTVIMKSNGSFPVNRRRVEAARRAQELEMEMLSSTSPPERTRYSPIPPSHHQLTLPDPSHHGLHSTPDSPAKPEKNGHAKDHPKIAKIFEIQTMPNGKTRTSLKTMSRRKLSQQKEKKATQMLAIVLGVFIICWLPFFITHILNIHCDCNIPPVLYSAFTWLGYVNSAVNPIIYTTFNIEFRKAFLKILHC

Turning to `CCN1CCCC1CNc1nncc2ccc(OC)c(OC)c12` (stereo unspecified), the pKi (commonly −log10 of the Ki, conventionally taken in molar units) was 8.41.
